Test results taken from patent US20230035892A1, “METHODS AND COMPOSITIONS FOR TREATING CANCER” (Flagship Pioneering Innovations V, Inc., priority 2019, published 2023).

Assays:
Assay in all cases: Proliferation, percent viability normalized to DMSO
Assay type in all cases: cell-based
BXPC3 = settings: Homo sapiens, BXPC-3
Description: (§1) The GRK2 small molecule antagonist of Formula III-26 was used to evaluate the effect of a small molecule GRK2 antagonist on the proliferation of pancreatic cancer cell lines Miapaca2, Panc1, BXPC3, PAXF1657, PAXF1997 and Capan1. Values represent percent viability normalized to DMSO.

Capan1 = settings: Homo sapiens, CAPAN-1
Description: as §1

MIAPACA2 = settings: Homo sapiens, MIA PaCa-2
Description: as §1

PANC1 = settings: Homo sapiens, PANC-1
Description: as §1

PAXF1657 = test system: PAXF1657
Description: as §1

PAXF1997 = test system: PAXF1997
Description: as §1

In the case of `Cn1c(CNc2cccc(C(=O)NCc3ccccc3C(F)(F)F)c2)nnc1-c1ccncc1` [Compound of Formula III-26], the viability at 0.005 µM (BXPC3; BXPC3, dose 0.005 μM) is reported as 106%, the viability at 0.014 µM (BXPC3; BXPC3, dose 0.014 μM) is reported as 105% and the viability at 0.041 µM (BXPC3; BXPC3, dose 0.041 μM) is reported as 104%. It also gave a viability at 0.123 µM (BXPC3; BXPC3, dose 0.123 μM) of 104%, a viability at 0.37 µM (BXPC3; BXPC3, dose 0.370 μM) of 108% and a viability at 1.111 µM (BXPC3; BXPC3, dose 1.111 μM) of 102%. For the same molecule, the viability at 3.333 µM (BXPC3; BXPC3, dose 3.333 μM) was 91.5%, the viability at 10 µM (BXPC3; BXPC3, dose 10.000 μM) was 77% and the viability at 30 µM (BXPC3; BXPC3, dose 30.000 μM) was 75.8%. The viability at 0.005 µM (Capan1; Capan1, dose 0.005 μM) was 107%, the viability at 0.014 µM (Capan1; Capan1, dose 0.014 μM) was 108% and the viability at 0.041 µM (Capan1; Capan1, dose 0.041 μM) was 112%. It also gave a viability at 0.123 µM (Capan1; Capan1, dose 0.123 μM) of 114%, a viability at 0.37 µM (Capan1; Capan1, dose 0.370 μM) of 112% and a viability at 1.111 µM (Capan1; Capan1, dose 1.111 μM) of 106%. It also gave a viability at 3.333 µM (Capan1; Capan1, dose 3.333 μM) of 100%, a viability at 10 µM (Capan1; Capan1, dose 10.000 μM) of 90% and a viability at 30 µM (Capan1; Capan1, dose 30.000 μM) of 95.4%. The viability at 0.005 µM (MIAPACA2; Miapaca2, dose 0.005 μM) was 102%, the viability at 0.014 µM (MIAPACA2; Miapaca2, dose 0.014 μM) was 105% and the viability at 0.041 µM (MIAPACA2; Miapaca2, dose 0.041 μM) was 108%. The viability at 0.123 µM (MIAPACA2; Miapaca2, dose 0.123 μM) was 111%, the viability at 0.37 µM (MIAPACA2; Miapaca2, dose 0.370 μM) was 114% and the viability at 1.111 µM (MIAPACA2; Miapaca2, dose 1.111 μM) was 99.3%. The viability at 3.333 µM (MIAPACA2; Miapaca2, dose 3.333 μM) was 86.6%, the viability at 10 µM (MIAPACA2; Miapaca2, dose 10.000 μM) was 66.1% and the viability at 30 µM (MIAPACA2; Miapaca2, dose 30.000 μM) was 40%. For the same molecule, the viability at 0.005 µM (PANC1; Panc1, dose 0.005 μM) was 103%, the viability at 0.014 µM (PANC1; Panc1, dose 0.014 μM) was 112% and the viability at 0.041 µM (PANC1; Panc1, dose 0.041 μM) was 113%. The viability at 0.123 µM (PANC1; Panc1, dose 0.123 μM) was 113%, the viability at 0.37 µM (PANC1; Panc1, dose 0.370 μM) was 113% and the viability at 1.111 µM (PANC1; Panc1, dose 1.111 μM) was 113%. It also gave a viability at 3.333 µM (PANC1; Panc1, dose 3.333 μM) of 100%, a viability at 10 µM (PANC1; Panc1, dose 10.000 μM) of 85.2% and a viability at 30 µM (PANC1; Panc1, dose 30.000 μM) of 86.2%. For the same molecule, the viability at 0.005 µM (PAXF1657; PAXF1657, dose 0.005 μM) was 111%, the viability at 0.014 µM (PAXF1657; PAXF1657, dose 0.014 μM) was 111% and the viability at 0.041 µM (PAXF1657; PAXF1657, dose 0.041 μM) was 116%. It also gave a viability at 0.123 µM (PAXF1657; PAXF1657, dose 0.123 μM) of 118%, a viability at 0.37 µM (PAXF1657; PAXF1657, dose 0.370 μM) of 115% and a viability at 1.111 µM (PAXF1657; PAXF1657, dose 1.111 μM) of 110%. The viability at 3.333 µM (PAXF1657; PAXF1657, dose 3.333 μM) was 102%, the viability at 10 µM (PAXF1657; PAXF1657, dose 10.000 μM) was 88.6% and the viability at 30 µM (PAXF1657; PAXF1657, dose 30.000 μM) was 69%. It also gave a viability at 0.005 µM (PAXF1997; PAXF1997, dose 0.005 μM) of 111%, a viability at 0.014 µM (PAXF1997; PAXF1997, dose 0.014 μM) of 111% and a viability at 0.041 µM (PAXF1997; PAXF1997, dose 0.041 μM) of 112%. It also gave a viability at 0.123 µM (PAXF1997; PAXF1997, dose 0.123 μM) of 114%, a viability at 0.37 µM (PAXF1997; PAXF1997, dose 0.370 μM) of 118% and a viability at 1.111 µM (PAXF1997; PAXF1997, dose 1.111 μM) of 110%. The viability at 3.333 µM (PAXF1997; PAXF1997, dose 3.333 μM) was 104%, the viability at 10 µM (PAXF1997; PAXF1997, dose 10.000 μM) was 83.7% and the viability at 30 µM (PAXF1997; PAXF1997, dose 30.000 μM) was 81.4%.
